In article PMC9618446 (Biomedicine & Pharmacotherapy, 2022):

What was measured:
[1] = system: SARS-CoV-2 (isolate Wuhan-Hu-1); assay: microbe, parasite or virus in culture; assay type: cell-based; conditions: for IC50: Severe acute respiratory syndrome coronavirus 2, Vero C1008, 24 h, read-out: IC50 (half-maximal inhibitory concentration), anti-SARS-CoV-2 activity
in vitro [2] = conditions: African green monkey
in vitro [3] = conditions: human
CXCL-10 = assay type: cell-based, human
IL-1β = assay type: cell-based, human
[4] = system: SARS-CoV-2 S protein-mediated cell-cell fusion; assay type: cell-based
SARS-CoV-2 S PsV = assay: microbe, parasite or virus in culture; assay type: cell-based
IL-6 = assay type: cell-based, human
3 C-like protease = conditions: cited from earlier work
papain-like protease = conditions: cited from earlier work

In the case of `COc1ccc([C@@H]2CC(=O)c3c(O)cc(O)cc3O2)cc1O` [HE, Hesperetin], the “SI: selectivity index as CC50/IC50” value [1] is reported as > 4.00, the IC50 [1] is reported as 50 ± 0.66 µM and the CC50 (in vitro [2]) is reported as > 200 µM. For the same molecule, the CC50 (in vitro [3]) was > 400 µM.
For `O=C(/C=C/c1ccc(O)cc1)c1ccc(O)cc1O` [IS, Isoliquiritigenin], the “release of CXCL-10 from THP-1 cells” value (CXCL-10) was “inhibited the release of both CXCL-10 and IL-1β” and the “release of IL-1β from THP-1 cells” value (IL-1β) was “inhibited the release of both CXCL-10 and IL-1β”.
With `O=c1cc(-c2ccc(O)c(O)c2)oc2cc(O)cc(O)c12` [LU, Luteolin] the “release of CXCL-10 from THP-1 cells” value (CXCL-10) was “inhibited the release of CXCL-10”.
With `O=C1C[C@@H](c2ccc(O)cc2)Oc2cc(O)cc(O)c21` [NA, Naringenin] the “release of CXCL-10 from THP-1 cells” value (CXCL-10) was “inhibited the release of CXCL-10”.
For `COc1c(O)cc2oc(-c3ccccc3)cc(=O)c2c1O` [OA, Oroxylin A], the “SARS-CoV-2 S protein-mediated cell-cell fusion (syncytium formation)” value [4] was “significantly inhibited”, the “release of CXCL-10 from THP-1 cells” value (CXCL-10) was “inhibited the release of both CXCL-10 and IL-1β” and the “SI: selectivity index as CC50/IC50” value [1] was > 6.37. The IC50 [1] was 31.39 ± 0.07 µM, the “release of IL-1β from THP-1 cells” value (IL-1β) was “inhibited the release of both CXCL-10 and IL-1β” and the IC50 (SARS-CoV-2 S PsV; Severe acute respiratory syndrome coronavirus 2, read-out: IC50 against SARS-CoV-2 S PsV infection) was 15 ± 1.46 µM. The CC50 (in vitro [2]) was > 200 µM and the CC50 (in vitro [3]) was > 400 µM.
In the case of `Oc1ccc(/C=C/c2cc(O)cc(O)c2)cc1` [RE, Resveratrol], the “release of IL-1β from THP-1 cells” value (IL-1β) is reported as “inhibited the release of IL-1β”.
For `O=C(O)[C@H]1O[C@@H](Oc2cc3oc(-c4ccc(O)cc4)cc(=O)c3c(O)c2O)[C@H](O)[C@@H](O)[C@@H]1O` [SC, Scutellarin], the “release of IL-6 from THP-1 cells” value (IL-6) is given as “except SC”, the “inhibition of 3 C-like protease activity” value (3 C-like protease) is given as “nor the activity of 3 C-like protease and papain-like protease” and the “SI: selectivity index as CC50/IC50” value [1] is given as > 8.90. For the same molecule, the IC50 [1] was 22.47 ± 0.19 µM, the “inhibition of papain-like protease activity” value (papain-like protease) was “nor the activity of 3 C-like protease and papain-like protease” and the “inhibitory activity against entry of SARS-CoV-2 S PsV (in words)” value (SARS-CoV-2 S PsV) was “inhibits neither the entry of SARS-CoV-2 S PsV”. The CC50 (in vitro [2]) was > 200 µM and the CC50 (in vitro [3]) was > 400 µM.
With `COc1c(O)cc2occ(-c3ccc(O)cc3)c(=O)c2c1O` [TE, Tectorigenin] the “release of CXCL-10 from THP-1 cells” value (CXCL-10) was “inhibited the release of both CXCL-10 and IL-1β”, the “inhibition of SARS-CoV-2 infection” value [1] was “approximately 48.31%” and the “release of IL-1β from THP-1 cells” value (IL-1β) was “inhibited the release of both CXCL-10 and IL-1β”.
